Data taken from ChEMBL document CHEMBL3785084, “Rational modification of the lead molecule: Enhancement in the anticancer and dihydrofolate reductase inhibitory activity” (Bioorg Med Chem Lett, 2016).

Key:
Dihydrofolate reductase = target: T1, Dihydrofolate reductase (Homo sapiens, UniProt P00374); assay: Inhibition of human DHFR assessed as conversion of dihydrofolic acid to tetrahydrfolic acid by enzyme immunoassay in presence of NADPH
T1 sequence (P00374 whole entry): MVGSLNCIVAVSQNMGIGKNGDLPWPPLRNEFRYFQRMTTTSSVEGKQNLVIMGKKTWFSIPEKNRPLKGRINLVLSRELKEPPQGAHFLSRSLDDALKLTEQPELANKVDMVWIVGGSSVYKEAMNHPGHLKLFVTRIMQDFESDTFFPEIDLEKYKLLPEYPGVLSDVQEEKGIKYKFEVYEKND

[1] = Cytotoxicity against human HL-60(TB) cells assessed as cell growth at 10^-5 M after 48 hrs by sulforhodamine B assay; type: functional; conditions: HL-60, 48 h, read-out: Activity
K562 = assay: Cytotoxicity against human K562 cells assessed as cell growth at 10^-5 M after 48 hrs by sulforhodamine B assay; type: functional; conditions: K562, 48 h, read-out: Activity
SR = assay: Cytotoxicity against human SR cells assessed as cell growth at 10^-5 M after 48 hrs by sulforhodamine B assay; type: functional; conditions: read-out: Activity
NCI-H522 [2] = assay: Cytotoxicity against human NCI-H522 cells assessed as cell growth at 10^-5 M after 48 hrs by sulforhodamine B assay; type: functional; conditions: NCI-H522, 48 h, read-out: Activity
HT-29 = assay: Cytotoxicity against human HT-29 cells assessed as cell growth at 10^-5 M after 48 hrs by sulforhodamine B assay; type: functional; conditions: HT-29, 48 h, read-out: Activity
KM12 [3] = assay: Cytotoxicity against human KM12 cells assessed as cell growth at 10^-5 M after 48 hrs by sulforhodamine B assay; type: functional; conditions: KM12, 48 h, read-out: Activity
SK-MEL-28 = assay: Cytotoxicity against human SK-MEL-28 cells assessed as cell growth at 10^-5 M after 48 hrs by sulforhodamine B assay; type: functional; conditions: SK-MEL-28, 48 h, read-out: Activity
SK-MEL-5 = assay: Cytotoxicity against human SK-MEL-5 cells assessed as cell growth at 10^-5 M after 48 hrs by sulforhodamine B assay; type: functional; conditions: SK-MEL-5, 48 h, read-out: Activity
[4] = Cytotoxicity against human UACC257 cells assessed as cell growth at 10^-5 M after 48 hrs by sulforhodamine B assay; type: functional; conditions: UACC-257, 48 h, read-out: Activity
[5] = Cytotoxicity against human OVCAR4 cells assessed as cell growth at 10^-5 M after 48 hrs by sulforhodamine B assay; type: functional; conditions: OVCAR-4, 48 h, read-out: Activity
[6] = Cytotoxicity against human NCI-ADR-RES cells assessed as cell growth at 10^-5 M after 48 hrs by sulforhodamine B assay; type: functional; conditions: read-out: Activity
[7] = Cytotoxicity against human SKOV3 cells assessed as cell growth at 10^-5 M after 48 hrs by sulforhodamine B assay; type: functional; conditions: SK-OV-3, 48 h, read-out: Activity
ACHN [8] = assay: Cytotoxicity against human ACHN cells assessed as cell growth at 10^-5 M after 48 hrs by sulforhodamine B assay; type: functional; conditions: read-out: Activity
[9] = Cytotoxicity against human Caki1 cells assessed as cell growth at 10^-5 M after 48 hrs by sulforhodamine B assay; type: functional; conditions: CAKI-1, 48 h, read-out: Activity
[10] = Cytotoxicity against human RXF393 cells assessed as cell growth at 10^-5 M after 48 hrs by sulforhodamine B assay; type: functional; conditions: RXF 393, 48 h, read-out: Activity
[11] = Cytotoxicity against human TK10 cells assessed as cell growth at 10^-5 M after 48 hrs by sulforhodamine B assay; type: functional; conditions: TK-10, 48 h, read-out: Activity
[12] = Cytotoxicity against human UO31 cells assessed as cell growth at 10^-5 M after 48 hrs by sulforhodamine B assay; type: functional; conditions: UO-31, 48 h, read-out: Activity
[13] = Cytotoxicity against human PC3 cells assessed as cell growth at 10^-5 M after 48 hrs by sulforhodamine B assay; type: functional; conditions: PC-3, 48 h, read-out: Activity
T47D = assay: Cytotoxicity against human T47D cells assessed as cell growth at 10^-5 M after 48 hrs by sulforhodamine B assay; type: functional; conditions: read-out: Activity
cells [14] = conditions: Homo sapiens, IGROV-1, 48 h
Description: Cytotoxicity against human IGROV1 cells after 48 hrs by sulforhodamine B assay

cells [15] = conditions: Homo sapiens, OVCAR-3, 48 h
Description: Cytotoxicity against human OVCAR3 cells after 48 hrs by sulforhodamine B assay

cells [16] = conditions: Homo sapiens, OVCAR-8, 48 h
Description: Cytotoxicity against human OVCAR8 cells after 48 hrs by sulforhodamine B assay

A498 = assay: cells; conditions: Homo sapiens, A498, 48 h
Description: Cytotoxicity against human A498 cells after 48 hrs by sulforhodamine B assay

ACHN [17] = assay: cells; conditions: Homo sapiens, 48 h
Description: Cytotoxicity against human ACHN cells after 48 hrs by sulforhodamine B assay

cells [18] = conditions: Homo sapiens, PC-3, 48 h
Description: Cytotoxicity against human PC3 cells after 48 hrs by sulforhodamine B assay

MDA-MB-231 = assay: cells; conditions: Homo sapiens, MDA-MB-231, 48 h
Description: Cytotoxicity against human MDA-MB-231 cells after 48 hrs by sulforhodamine B assay

cells [19] = conditions: Homo sapiens, HL-60, 48 h
Description: Cytotoxicity against human HL-60(TB) cells after 48 hrs by sulforhodamine B assay

cells [20] = conditions: Homo sapiens, RPMI-8226, 48 h
Description: Cytotoxicity against human RPMI8226 cells after 48 hrs by sulforhodamine B assay

EKVX = assay: cells; conditions: Homo sapiens, 48 h
Description: Cytotoxicity against human EKVX cells after 48 hrs by sulforhodamine B assay

NCI-H522 [21] = assay: cells; conditions: Homo sapiens, NCI-H522, 48 h
Description: Cytotoxicity against human NCI-H522 cells after 48 hrs by sulforhodamine B assay

KM12 [22] = assay: cells; conditions: Homo sapiens, KM12, 48 h
Description: Cytotoxicity against human KM12 cells after 48 hrs by sulforhodamine B assay

cells [23] = conditions: Homo sapiens, SF-539, 48 h
Description: Cytotoxicity against human SF539 cells after 48 hrs by sulforhodamine B assay

U-251 = assay: cells; conditions: Homo sapiens, U-251, 48 h
Description: Cytotoxicity against human U251 cells after 48 hrs by sulforhodamine B assay

Malme-3M = assay: cells; conditions: Homo sapiens, 48 h
Description: Cytotoxicity against human MALME-3M cells after 48 hrs by sulforhodamine B assay

O=C1NC(=O)C(=Cc2cn(CC(O)Cn3cc(C=C4C(=O)NC(=O)NC4=O)c4ccccc43)c3ccccc23)C(=O)N1
IC50 (Dihydrofolate reductase): 5 µM | growth at 10 µM [1]: 107% | growth at 10 µM (K562): 107% | growth at 10 µM (SR): 96.9% | growth at 10 µM (NCI-H522 [2]): 97.1% | growth at 10 µM (HT-29): 88.3% | growth at 10 µM (KM12 [3]): 94% | growth at 10 µM (SK-MEL-28): 111% | growth at 10 µM (SK-MEL-5): 101% | growth at 10 µM [4]: 110% | growth at 10 µM [5]: 100% | growth at 10 µM [6]: 99.5% | growth at 10 µM [7]: 102% | growth at 10 µM (ACHN [8]): 105% | growth at 10 µM [9]: 101% | growth at 10 µM [10]: 89.1% | growth at 10 µM [11]: 105% | growth at 10 µM [12]: 86% | growth at 10 µM [13]: 93.7% | growth at 10 µM (T47D): 91.8%

CN1C(=O)C(=Cc2cn(CC(O)Cn3cc(C=C4C(=O)N(C)C(=O)N(C)C4=O)c4ccccc43)c3ccccc23)C(=O)N(C)C1=O
IC50 (Dihydrofolate reductase): 20 µM | growth at 10 µM [1]: 107% | growth at 10 µM (K562): 97.3% | growth at 10 µM (SR): 94.3% | growth at 10 µM (NCI-H522 [2]): 108% | growth at 10 µM (HT-29): 112% | growth at 10 µM (KM12 [3]): 94.3% | growth at 10 µM (SK-MEL-28): 109% | growth at 10 µM (SK-MEL-5): 97% | growth at 10 µM [4]: 127% | growth at 10 µM [5]: 97.2% | growth at 10 µM [6]: 105% | growth at 10 µM [7]: 85.2% | growth at 10 µM (ACHN [8]): 93.7% | growth at 10 µM [9]: 90.8% | growth at 10 µM [10]: 104% | growth at 10 µM [11]: 117% | growth at 10 µM [12]: 63.8% | growth at 10 µM [13]: 79.6% | growth at 10 µM (T47D): 91.8%

O=C1Nc2ccccc2/C1=C/c1cn(CC(O)Cn2cc(/C=C3\C(=O)Nc4ccccc43)c3ccccc32)c2ccccc12 (stereo not drawn)
IC50 (Dihydrofolate reductase): 0.03 µM | Ki (Dihydrofolate reductase): 0.00583 µM | growth at 10 µM [1]: -10.2% | growth at 10 µM (K562): -16.7% | growth at 10 µM (SR): -2.94% | growth at 10 µM (NCI-H522 [2]): -17.4% | growth at 10 µM (HT-29): -20.2% | growth at 10 µM (KM12 [3]): -80.9% | growth at 10 µM (SK-MEL-28): -85% | growth at 10 µM (SK-MEL-5): -80.2% | growth at 10 µM [4]: -51% | growth at 10 µM [5]: -51.7% | growth at 10 µM [6]: 31.8% | growth at 10 µM [7]: -38.2% | growth at 10 µM (ACHN [8]): -68.4% | growth at 10 µM [9]: 9.83% | growth at 10 µM [10]: -90.8% | growth at 10 µM [11]: -15.1% | growth at 10 µM [12]: -9.18% | growth at 10 µM [13]: -86.3% | growth at 10 µM (T47D): -46.1% | GI50 (cells [14]): 0.47 µM | TGI (cells [14]): 1.9 µM | CC50 (cells [14]; read-out: LC50): 5.3 µM | GI50 (cells [15]): 1.6 µM | TGI (cells [15]): 3.3 µM | CC50 (cells [15]; read-out: LC50): 6.6 µM | GI50 (cells [16]): 2.3 µM | TGI (cells [16]): 4.7 µM | GI50 (A498): 2.2 µM | TGI (A498): 4.1 µM | CC50 (A498; read-out: LC50): 7.6 µM | GI50 (ACHN [17]): 1.6 µM | TGI (ACHN [17]): 3.9 µM | CC50 (ACHN [17]; read-out: LC50): 9.3 µM | GI50 (cells [18]): 1.2 µM | TGI (cells [18]): 2.6 µM | CC50 (cells [18]; read-out: LC50): 5.8 µM | GI50 (MDA-MB-231): 1.2 µM | TGI (MDA-MB-231): 2.7 µM | CC50 (MDA-MB-231; read-out: LC50): 5.7 µM | GI50 (cells [19]): 2.9 µM | TGI (cells [19]): 10.9 µM | CC50 (cells [19]; read-out: LC50): 57.5 µM | GI50 (cells [20]): 2.1 µM | TGI (cells [20]): 5.4 µM | CC50 (cells [20]; read-out: LC50): > 100 µM | GI50 (EKVX): 1.8 µM | TGI (EKVX): 3.7 µM | CC50 (EKVX; read-out: LC50): 7.8 µM | GI50 (NCI-H522 [21]): 1.6 µM | TGI (NCI-H522 [21]): 3.5 µM | GI50 (KM12 [22]): 1.4 µM | TGI (KM12 [22]): 3.3 µM | GI50 (cells [23]): 1.5 µM | TGI (cells [23]): 3.1 µM | CC50 (cells [23]; read-out: LC50): 6.1 µM | GI50 (U-251): 1.5 µM | TGI (U-251): 2.9 µM | CC50 (U-251; read-out: LC50): 5.6 µM | GI50 (Malme-3M): 1.5 µM | TGI (Malme-3M): 3.2 µM | CC50 (Malme-3M; read-out: LC50): 7.1 µM
